Reference: paper PMC6751184, “Heme and hemoglobin utilization by Mycobacterium tuberculosis” (Nature Communications, 2019)

Molecular target: DppA (Rv3666c), substrate-binding protein of the Dpp transporter (Mycobacterium tuberculosis, UniProt I6X811)
Test: […]; also difference absorption spectroscopy

Chain of DppA (Rv3666c), substrate-binding protein of the Dpp transporter (I6X811 entry or part of it): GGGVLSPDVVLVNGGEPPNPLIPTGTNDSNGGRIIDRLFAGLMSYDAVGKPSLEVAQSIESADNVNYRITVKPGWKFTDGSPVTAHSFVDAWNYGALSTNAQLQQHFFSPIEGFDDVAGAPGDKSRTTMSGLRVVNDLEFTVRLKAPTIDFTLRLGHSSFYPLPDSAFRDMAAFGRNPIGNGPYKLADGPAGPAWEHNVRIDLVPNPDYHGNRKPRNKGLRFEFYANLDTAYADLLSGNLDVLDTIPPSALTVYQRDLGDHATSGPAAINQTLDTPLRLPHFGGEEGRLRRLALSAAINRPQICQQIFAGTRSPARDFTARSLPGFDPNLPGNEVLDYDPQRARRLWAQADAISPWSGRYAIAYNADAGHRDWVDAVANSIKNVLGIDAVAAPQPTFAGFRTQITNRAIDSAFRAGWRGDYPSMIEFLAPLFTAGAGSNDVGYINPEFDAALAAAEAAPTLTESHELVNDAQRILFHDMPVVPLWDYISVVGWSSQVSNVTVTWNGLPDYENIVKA

C=CC1=C(C)C2=Cc3c(C=C)c(C)c4[n]3[Fe]([Cl])[n]3c(c(C)c(CCC(=O)O)c3=CC3=NC(=C4)C(C)=C3CCC(=O)O)=CC1=N2 [hemin]
Kd: ~1500 nM
